In ChEMBL document CHEMBL1275540, “Plasmid-mediated quinolone resistance determinants qnrA, qnrB, and qnrS among clinical isolates of Enterobacteriaceae in a Korean hospital” (2008):
In brackets after ≈: the same amount, converted by molar mass.

Tests used:
Type in all cases: functional
Escherichia coli [1] = experiment: Antibacterial activity against Escherichia coli J53 by agar dilution method
Escherichia coli [2] = experiment: Antibacterial activity against rifampin resistant Escherichia coli RG488 receiving Escherichia coli qnrB4 by agar dilution method
Escherichia coli [3] = experiment: Antibacterial activity against rifampin resistant Escherichia coli RG488 receiving Klebsiella pneumoniae qnrS1 by agar dilution method
Escherichia coli [4] = experiment: Antibacterial activity against Escherichia coli RG488 by agar dilution method
Escherichia coli [5] = experiment: Antibacterial activity against rifampin resistant Escherichia coli RG488 receiving Klebsiella pneumoniae qnrB6 by agar dilution method
Escherichia coli [6] = experiment: Antibacterial activity against rifampin resistant Escherichia coli RG488 receiving Enterobacter cloacae qnrB4 by agar dilution method
Escherichia coli [7] = experiment: Antibacterial activity against rifampin resistant Escherichia coli RG488 receiving Klebsiella pneumoniae qnrB4 by agar dilution method

Compound	MIC90 (Escherichia coli [1])	MIC90 (Escherichia coli [2])	MIC90 (Escherichia coli [3])	MIC90 (Escherichia coli [4])	MIC90 (Escherichia coli [5])	MIC90 (Escherichia coli [6])	MIC90 (Escherichia coli [7])
CCn1cc(C(=O)O)c(=O)c2ccc(C)nc21 [NALIDIXIC ACID]	4 µg/mL (≈ 17.2 µM)	16 µg/mL (≈ 68.9 µM)	32 µg/mL (≈ 138 µM)	4 µg/mL (≈ 17.2 µM)	16 µg/mL (≈ 68.9 µM)	8 µg/mL (≈ 34.4 µM)	8 µg/mL (≈ 34.4 µM)
O=C(O)c1cn(C2CC2)c2cc(N3CCNCC3)c(F)cc2c1=O [CIPROFLOXACIN]	0.015 µg/mL (≈ 0.0453 µM)	–	1 µg/mL (≈ 3.02 µM)	0.03 µg/mL (≈ 0.0905 µM)	–	–	0.125 µg/mL (≈ 0.377 µM)
